Assay results as given in patent US9546138B2, “Pyridone derivatives and uses thereof in the treatment of tuberculosis” (priority 2012, dated 2017).

Experiments:
[1] = system: Mtb H37Rv resistant mutant 529-5X-108-S1 (inhA D148G); assay type: cell-based, Mycobacterium tuberculosis
[2] = system: Mtb H37Rv resistant mutant 529-5X-108-B2 (inhA S94A); assay type: cell-based, Mycobacterium tuberculosis
[3] = system: Mtb H37Rv resistant mutant 529-5X-108-B4 (inhA G96V); assay type: cell-based, Mycobacterium tuberculosis
[4] = system: Mtb H37Rv resistant mutant 529-10X-108-B6; assay type: cell-based, Mycobacterium tuberculosis
[5] = system: Mtb H37Rv resistant mutant 529-10X-107-B8 (inhA D148E); assay type: cell-based, Mycobacterium tuberculosis
[6] = system: BCG-529-108-10X-2 (InhA M161V); assay type: cell-based, M bovis BCG
[7] = system: BCG-916-108-25X-B1 (InhA M161I); assay type: cell-based, M bovis BCG
[8] = system: Mtb H37Rv resistant mutant 529-5X-108-S3 (inhA D148G); assay type: cell-based, Mycobacterium tuberculosis

| Compound | Compound MIC50 [1] | Compound MIC50 [2] | Compound MIC50 [3] | Compound MIC50 [4] | Compound MIC50 [5] | Compound MIC50 [6] | Compound MIC50 [7] | Compound MIC50 [8] |
| --- | --- | --- | --- | --- | --- | --- | --- | --- |
| CCc1cc(C(N)=S)ccn1 [Ethionamide, reference compound] | 1.53 µM | 9.74 µM | 1.32 µM | 1.41 µM | 1.91 µM | >60 µM | >60 µM | – |
| NNC(=O)c1ccncc1 [Isoniazid, isoniazid, reference compound] | 0.15 µM | 0.86 µM | 0.09 µM | 0.11 µM | 0.31 µM | 1.27 µM | 1.48 µM | 0.15 µM |
| O=c1[nH]c(CC2CCCCC2)cc(O)c1-c1ccccc1 [PD2, 6-(cyclohexylmethyl)-4-hydroxy-3-phenylpyridin-2(1H)-one] | 1.46 µM | 4.04 µM | 14.60 µM | >40 µM | >40 µM | – | – | 1.73 µM |
| CC1(C)CCC(Cc2cc(O)c(-c3ccccc3)c(=O)[nH]2)CC1 [PD10, 6-((4,4-dimethylcyclohexyl)methyl)-4-hydroxy-3-phenylpyridin-2(1H)-one] | 0.29 µM | 0.78 µM | >5.0 µM | >5.0 µM | >5.0 µM | 3.02 µM | 3.2 µM | 0.38 µM |
| CC(C)Cc1cc(O)c(-c2ccccc2)c(=O)[nH]1 [PD12, 4-hydroxy-6-isobutyl-3-phenylpyridin-2(1H)-one] | >40 µM | >40 µM | >40 µM | >40 µM | >40 µM | 27.88 µM | 21.52 µM | >40 µM |
